Columns and labels:
[1] = Oral bioavailability rat at 10 mg/kg; format: ADME, organism-based; settings: in vivo
[2] = AUC (0 to 24 hrs) in rat at 5 mg/kg, iv; format: ADME, organism-based; set-up: time < 24 hr, dose 5 mg/kg, route intravenous; settings: in vivo
[3] = Apparent permeability of the compound at pH 7.4 by PAMPA; format: physicochemical
[4] = (§1) AUC (0 to 6 hrs) in rat at 5 mg/kg, iv; format: ADME, organism-based; set-up: dose 5 mg/kg, time < 6 hr, route intravenous; settings: in vivo
[5] = Apparent permeability of the compound at pH 5.5 by PAMPA; format: physicochemical
[6] = AUC (0 to 24 hrs) in rat at 10 mg/kg, iv; format: ADME, organism-based; set-up: dose 10 mg/kg, time < 24 hr, route intravenous; settings: in vivo
[7] = AUC (0 to 24 hrs) in dog at 3 mg/kg, po; format: ADME, organism-based, Canis lupus familiaris; set-up: time < 24 hr, dose 3 mg/kg, route oral; settings: in vivo
[8] = Volume of distribution at steady state in rat at 5 mg/kg, iv; format: ADME, organism-based; settings: in vivo, read-out: Vdss
[9] = Oral bioavailability in dog at 3 mg/kg; format: ADME, organism-based, Canis lupus familiaris; settings: in vivo
[10] = Oral bioavailability in cynomolgus monkey at 3 mg/kg; format: ADME, organism-based, Macaca fascicularis; settings: in vivo
[11] = Volume of distribution at steady state in dog at 1 mg/kg, iv; format: ADME, organism-based, Canis lupus familiaris; settings: in vivo, read-out: Vdss
[12] = AUC (0 to 24 hrs) in dog at 1 mg/kg, iv; format: ADME, organism-based, Canis lupus familiaris; set-up: time < 24 hr, dose 1 mg/kg, route intravenous; settings: in vivo
[13] = Volume of distribution at steady state in cynomolgus monkey at 1 mg/kg, iv; format: ADME, organism-based, Macaca fascicularis; settings: in vivo, read-out: Vdss
[14] = AUC (0 to 24 hrs) in cynomolgus monkey at 3 mg/kg, […]; format: ADME, organism-based, Macaca fascicularis; set-up: dose 3 mg/kg, time < 24 hr; settings: in vivo
[15] = AUC (0 to 24 hrs) in cynomolgus monkey at 1 mg/kg, iv; format: ADME, organism-based, Macaca fascicularis; set-up: dose 1 mg/kg, time < 24 hr, route intravenous; settings: in vivo
[16] = test system: Rattus norvegicus; experiment: as §1; format: ADME, organism-based; set-up: dose 5 mg/kg, time < 6 hr, route intravenous; settings: in vivo, 6 h

Row | bioavailability [1] | AUC(0-t) at 24 h [2] | Compound | Papp [3] | Papp [5] | also measured
1 | 13.6% | 0.857 µM·h | CCS(=O)(=O)NC(=O)c1ccc2c(C3CCCCC3)c3n(c2c1)C[C@@]1(C(=O)N2C4CCC2CN(C)C4)C[C@H]1c1cc(F)ccc1-3 |  |  | 
2 | 23% | 1.51 µM·h | CN1CC2CCC(C1)N2C(=O)[C@]12C[C@H]1c1cc(F)ccc1-c1c(C3CCCCC3)c3ccc(C(=O)NS(=O)(=O)C4CC4)cc3n1C2 |  |  | 
3 | 8% |  | CN1CC2CCC(C1)N2C(=O)[C@]12C[C@H]1c1cc(F)ccc1-c1c(C3CCCCC3)c3ccc(C(=O)NS(=O)(=O)C(C)(C)C)cc3n1C2 | 23.8 ×10⁻⁶ cm/s | 13.5 ×10⁻⁶ cm/s | AUC(0-t) at 6 h [4]: 1.3 µM·h
4 | 19% |  | CN1CC2CCC(C1)N2C(=O)[C@]12C[C@H]1c1cc(F)ccc1-c1c(C3CCCCC3)c3ccc(C(=O)NS(=O)(=O)N4CCC4)cc3n1C2 |  |  | AUC [16]: 0.5 µM·h

Row | Compound | bioavailability [1] | AUC(0-t) at 24 h [2] | Papp [3] | Papp [5] | also measured
5 | CN1CC2CCC(C1)N2C(=O)[C@]12C[C@H]1c1cc(F)ccc1-c1c(C3CCCCC3)c3ccc(C(=O)NS(=O)(=O)C4(C)CC4)cc3n1C2 | 52% | 12.3 to 12.4 µM·h | 59 ×10⁻⁶ cm/s | 52.3 ×10⁻⁶ cm/s | AUC(0-t) at 24 h [6]: 12.4 µM·h; AUC(0-t) at 24 h [7]: 62.1 µM·h; Vd [8]: 3.9 L/kg; bioavailability [9]: 84%; bioavailability [10]: 48%; Vd [11]: 0.6 L/kg; AUC(0-t) at 24 h [12]: 25.7 µM·h; Vd [13]: 3.1 L/kg; AUC(0-t) at 24 h [14]: 3.1 µM·h; AUC(0-t) at 24 h [15]: 2.3 µM·h

Source: ChEMBL document CHEMBL4052691, “Discovery of BMS-961955, an allosteric inhibitor of the hepatitis C virus NS5B polymerase” (Bioorg Med Chem Lett, 2017)
